Data set [1] has as its system A2780 ovarian carcinoma cells. The data set is described as follows: Determination of antiproliferative activity on A2780 cells (MTT). It counts as cell-based, human. To be noted: four days of incubation; for IC50: Homo sapiens, 96 h, read-out: Cellular activity pIC50 (converted). The protocol: Cellular activity of the compounds of formula (I) was determined on A2780 tumour cells using a colorimetric assay for cell toxicity or survival (Mosmann Tim, Journal of Immunological Methods 65: 55-63, 1983)(see example C.2).
All compounds tested were dissolved in DMSO and further dilutions were made in culture medium. Final DMSO concentrations never exceeded 0.1% (v/v) in cell proliferation assays. Controls contained A2780 cells and DMSO without compound and blanks contained DMSO but no cells. MTT was dissolved at 5 mg/ml in PBS. A glycine buffer comprised of 0.1 M glycine and 0.1 M NaCl buffered to pH 10.5 with NaOH (1 N) was prepared (all reagents were from Merck).
The human A2780 ovarian carcinoma cells (a kind gift from Dr. T. C. Hamilton [Fox Chase Cancer Centre, Pennsylvania, USA]) were cultured in RPMI 1640 medium supplemented with 2 mM L-glutamine, 50 μg/ml gentamicin and 10% fetal calf serum. Cells were routinely kept as monolayer cultures at 37° C. in a humidified 5% CO2 atmosphere. Cells were passaged once a week using a trypsin/EDTA solution at a split ratio of 1:40. All media and supplements were obtained from Life Technologies. Cells were free of mycoplasma contamination as determined using the Gen-Probe Mycoplasma Tissue Culture kit (supplier: BioMérieux).
Cells were seeded in NUNC™ 96-well culture plates (Supplier: Life Technologies) and allowed to adhere to the plastic overnight. Densities used for plating were 1500 cells per well in a total volume of 200 μl medium. After cell adhesion to the plates, medium was changed and drugs and/or solvents were added to a final volume of 200 μl. Following four days of incubation, medium was replaced by 200 μl fresh medium and cell density and viability was assessed using an MTT-based assay. To each well, 25 μl MTT solution was added and the cells were further incubated for 2 hours at 37° C. The medium was then carefully aspirated and the blue MTT-formazan product was solubilized by addition of 25 μl glycine buffer followed by 100 μl of DMSO. […] Within an experiment, the results for each experimental condition are the mean of 3 replicate wells. For initial screening purposes, compounds were tested at a single fixed concentration of 10^−6M. For active compounds, the experiments were repeated to establish full concentration-response curves. For each experiment, controls (containing no drug) and a blank incubation (containing no cells or drugs) were run in parallel. The blank value was subtracted from all control and sample values. For each sample, the mean value for cell growth (in absorbance units) was expressed as a percentage of the mean value for cell growth of the control. […] Herein the effects of test compounds are expressed as pIC50 (the negative log value of the IC50-value).

The nature of data set [2]: Kinetic solubility in aqueous media (nephelometry). It counts as physicochemical. To be noted: phosphate citrate buffer pH 7.4, turbidity of three dilution steps. The protocol: Kinetic solubility in aqueous media measures the ability of a compound to stay in aqueous solution upon dilution (see example C.3).
DMSO-stock solutions are diluted with a single aqueous buffer solvent in 3 consecutive steps. For every dilution turbidity is measured with a nephelometer.
In the first dilution step, 10 μl of a concentrated stock-solution of the active compound, solubilized in DMSO (5 mM), was added to 100 μl phosphate citrate buffer pH 7.4 and mixed. In the second dilution step, an aliquot (20 μl) of the first dilution step was further dispensed in 100 μl phosphate citrate buffer pH 7.4 and mixed. Finally, in the third dilution step, a sample (20 μl) of the second dilution step was further diluted in 100 μl phosphate citrate buffer pH 7.4 and mixed. All dilutions were performed in 96-well plates. Immediately after the last dilution step the turbidity of the three consecutive dilution steps were measured with a nephelometer. Dilution was done in triplicate for each compound to exclude occasional errors. Based on the turbidity measurements a ranking is performed into 3 classes. Compounds with high solubility obtained a score of 3 and for this compounds the first dilution is clear. Compounds with medium solubility obtained a score of 2. For these compounds the first dilution is unclear and the second dilution is clear. […] The solubility of 9 compounds was measured.

In data set [3] the target is histone deacetylase (HDAC), HeLa nuclear extracts. The data set is described as follows: In vitro assay for inhibition of histone deacetylase. It counts as biochemical. More on the design: key: pIC50 = negative log of IC50. The settings on record: [3H]acetylated histone H4 peptide substrate, 30 min. As to the method:
The in vitro assay for inhibition of histone deacetylase (see example C.1) measures the inhibition of HDAC enzymatic activity obtained with the compounds of formula (I).
HeLa nuclear extracts (supplier: Biomol) were incubated at 60 μg/ml with 2×10^−8 M of radiolabeled peptide substrate. As a substrate for measuring HDAC activity a synthetic peptide, i.e. the amino acids 14-21 of histone H4, was used. The substrate is biotinylated at the NH2-terminal part with a 6-aminohexanoic acid spacer, and is protected at the COOH-terminal part by an amide group and specifically [^3H]acetylated at lysine 16. The substrate, biotin-(6-aminohexanoic)Gly-Ala-([^3H]-acetyl-Lys-Arg-His-Arg-Lys-Val-NH2), was added in a buffer containing 25 mM Hepes, 1 M sucrose, 0.1 mg/ml BSA and 0.01% Triton X-100 at pH 7.4. After 30 min the deacetylation reaction was terminated by the addition of HCl and acetic acid. (final concentration 0.035 mM and 3.8 mM respectively). After stopping the reaction, the free ^3H-acetate was extracted with ethylacetate. After mixing and centrifugation, the radioactivity in an aliquot of the upper (organic) phase was counted in a β-counter.
For each experiment, controls (containing HeLa nuclear extract and DMSO without compound), a blank incubation (containing DMSO but no HeLa nuclear extract or compound) and samples (containing compound dissolved in DMSO and HeLa nuclear extract) were run in parallel. In first instance, compounds were tested at a concentration of 10^−5M. […] In each test the blank value was substracted from both the control and the sample values. The control sample represented 100% of substrate deactylation. For each sample the radioactivity was expressed as a percentage of the mean value of the controls. […] Herein the effects of test compounds are expressed as pIC50 (the negative log value of the IC50-value).

Assay in data set [4]: not given
This is another data set of the same source.

Each structure is given as a SMILES string. Like-named read-outs stand apart in the source and are kept apart here. Bounds are passed on as bounds.

By melting point is commonly meant the temperature, or range, at which the solid turns liquid. Compound `CN(C)S(=O)(=O)NCC1CCN(c2ncc(C(=O)NO)cn2)CC1` [Co. No. 4] displayed a melting point of 182 °C. Also, in data set [1], the IC50 is 2.96 µM. Moreover, the “Solubility Score” value in data set [2] was 3 (Compounds with high solubility obtained a score of 3 and for this compounds the first dilution is clear). In data set [3], the “Enzyme activity pIC50” value was found to be 7.27.
`O=C(CS)Nc1ccc(N2CCC3(CC2)C(=O)NCN3c2ccccc2)cc1` [Co. No. 1]: in data set [1], the IC50 was over 10 µM. The “Solubility Score” value in data set [2] is 1 (Compounds with low solubility obtained a score of 1 and for these compounds both the first and the second dilution are unclear). For the same compound, the “Enzyme activity pIC50” value in data set [3] was under 5.
Consider `O=C(NO)c1cnc(N2CCN(C(=O)c3cccc4ccccc34)CC2)nc1` [compound 24], for which the “Cellular activity pIC50” value in data set [1] stood at 6.084. Moreover, in data set [3], the “Enzyme activity pIC50” value is 7.073.
For `NS(=O)(=O)N1CCN(c2ncc(C(=O)NO)cn2)CC1` [Co. No. 3], the melting point was 212 °C. For the same compound, in data set [1], the IC50 was over 10 µM. The “Solubility Score” value in data set [2] was 3 (Compounds with high solubility obtained a score of 3 and for this compounds the first dilution is clear). Moreover, the “Enzyme activity pIC50” value in data set [3] is given as 6.881.
As to `O=C(NO)c1cnc(N2CCN(C(=O)c3ccc4ccccc4c3)CC2)nc1` [Co. No. 6], the melting point turned out to be 130 °C. Also, in data set [1], the IC50 is 1.49 µM. Further, the “Solubility Score” value in data set [2] is 3 (Compounds with high solubility obtained a score of 3 and for this compounds the first dilution is clear). Further, in data set [3], the “Enzyme activity pIC50” value was found to be 7.104.
With `CCCCCCCCS(=O)(=O)N1CCN(c2ccc(C(=O)NO)cc2)CC1` [compound 18], the “Cellular activity pIC50” value in data set [1] came to 6.166. Besides, the “Solubility Score” value in data set [2] is 1 (Compounds with low solubility obtained a score of 1 and for these compounds both the first and the second dilution are unclear). Also, in data set [3], the “Enzyme activity pIC50” value is recorded as 6.173.
Take `COc1cc(N)c(Cl)cc1C(=O)NC1CCN(CCCOc2ccc(F)cc2)CC1OC` (stereo not shown) [Cisapride]: the “% metabolism” value in data set [4] (human, 15 min, 5 μM) is reported as 45%.
Take `CCCO` [propanol]: the “% metabolism” value in data set [4] (15 min incubation, compound 5 μM, microsomes 1 mg/ml, NADPH-generating system) is listed as 25%.
`O=C(NO)c1cnc(N2CCN(C(=O)C(c3ccccc3)c3ccccc3)CC2)nc1` [Co. No. 5]: the IC50 in data set [1] was 0.659 µM. Moreover, the “Enzyme activity pIC50” value in data set [3] came out at 7.096.
`CN(C)S(=O)(=O)N1CCN(c2ncc(C(=O)NO)cn2)CC1` [Co. No. 2] returned a melting point of over 260 °C. Besides, the IC50 in data set [1] was 2.92 µM. Moreover, in data set [2], the “Solubility Score” value is 3 (Compounds with high solubility obtained a score of 3 and for this compounds the first dilution is clear). The “Enzyme activity pIC50” value in data set [3] is on record as 6.615.
